Legend:
Assay in all cases: relative viability (nuclei count vs DMSO), 5 days (fraction); higher = more cells survive
[1] = tested on: NCI-H3122
Procedure, shortened: (§1)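 Each reported value is a median over duplicate plates. It expresses relative viability: treated-well nuclei count divided by vehicle-well nuclei count. Lung cancer cell lines in 1536-well plates were dosed by pin tool a day after seeding, alone with one drug or with a fixed anchor-drug dose plus five library-drug doses (not always all listed) in √10 steps, and nuclei were counted after 5 days.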

[2] = tested on: HARA
Procedure, shortened: as §1

[3] = tested on: NCI-H838
Procedure, shortened: as §1

[4] = tested on: CAL-12T
Procedure, shortened: as §1

[5] = tested on: LU99A
Procedure, shortened: as §1

[6] = tested on: NCI-H2009
Procedure, shortened: as §1

[7] = tested on: COR-L23
Procedure, shortened: as §1

[8] = tested on: NCI-H441
Procedure, shortened: as §1

[9] = tested on: NCI-H727
Procedure, shortened: as §1

[10] = tested on: LK-2
Procedure, shortened: as §1

NC(=O)Nc1cc(-c2cccc(F)c2)sc1C(=O)N[C@H]1CCCNC1 [AZD7762] + C[C@]1(O)C[C@@H](c2nc(-c3ccc4ccc(-c5ccccc5)nc4c3)c3c(N)nccn32)C1 [Linsitinib] (partner 1 µM)
relative viability ([1]; first compound 0.01 µM): 1.02
relative viability ([1]; first compound 0.03162 µM): 0.986
relative viability ([1]; first compound 0.1 µM): 1.05
relative viability ([1]; first compound 0.3162 µM): 0.868
relative viability ([1]; first compound 1 µM): 1.12
relative viability ([2]; first compound 0.01 µM): 0.961
relative viability ([2]; first compound 0.03162 µM): 0.934
relative viability ([2]; first compound 0.1 µM): 0.847
relative viability ([2]; first compound 0.3162 µM): 0.854
relative viability ([2]; first compound 1 µM): 0.617
relative viability ([3]; first compound 0.01 µM): 0.982
relative viability ([3]; first compound 0.03162 µM): 1.01
relative viability ([3]; first compound 0.1 µM): 0.942
relative viability ([3]; first compound 0.3162 µM): 0.978
relative viability ([3]; first compound 1 µM): 0.627
relative viability ([4]; first compound 0.01 µM): 0.91
relative viability ([4]; first compound 0.03162 µM): 0.725
relative viability ([4]; first compound 0.1 µM): 0.984
relative viability ([4]; first compound 0.3162 µM): 0.844
relative viability ([4]; first compound 1 µM): 0.288
relative viability ([5]; first compound 0.01 µM): 0.612
relative viability ([5]; first compound 0.03162 µM): 0.568
relative viability ([5]; first compound 0.1 µM): 0.526
relative viability ([5]; first compound 0.3162 µM): 0.432
relative viability ([5]; first compound 1 µM): 0.397
relative viability ([6]; first compound 0.01 µM): 1.32
relative viability ([6]; first compound 0.03162 µM): 1.18
relative viability ([6]; first compound 0.1 µM): 1.27
relative viability ([6]; first compound 0.3162 µM): 1.22
relative viability ([6]; first compound 1 µM): 0.752
relative viability ([7]; first compound 0.01 µM): 1.11
relative viability ([7]; first compound 0.03162 µM): 0.916
relative viability ([7]; first compound 0.1 µM): 0.98
relative viability ([7]; first compound 0.3162 µM): 0.799
relative viability ([7]; first compound 1 µM): 0.18
relative viability ([8]; first compound 0.01 µM): 0.656
relative viability ([8]; first compound 0.03162 µM): 0.744
relative viability ([8]; first compound 0.1 µM): 0.657
relative viability ([8]; first compound 0.3162 µM): 0.823
relative viability ([8]; first compound 1 µM): 0.67
relative viability ([9]; first compound 0.01 µM): 0.282
relative viability ([9]; first compound 0.03162 µM): 0.333
relative viability ([9]; first compound 0.1 µM): 0.311
relative viability ([9]; first compound 0.3162 µM): 0.219
relative viability ([9]; first compound 1 µM): 0.118
relative viability ([10]; first compound 0.01 µM): 0.691
relative viability ([10]; first compound 0.03162 µM): 0.597
relative viability ([10]; first compound 0.1 µM): 0.618
relative viability ([10]; first compound 0.3162 µM): 0.645
relative viability ([10]; first compound 1 µM): 0.308

Source: the supplement of paper PMC10307832
